# From patent publication US20090209605A1, “NEMATICIDAL COMPOSITIONS” (Devgen N.V., priority 2004, published 2009)
# Key:
# Type in all cases: in vivo
# Meloidogyne incognita = experiment: Root infestation on agar plate: root knot count on potato microplant roots; conditions: 60 μM in agar, galls counted 5 weeks after inoculation, four replicates
# Procedure: 9 cm petri dishes were filled with a 15 ml agar. One stem cutting of a potato microplant (Solanum tuberosum cv. Desirée) was placed on top of the agar layer. After 2 to 3 weeks of incubation at 20° C., the root system was sufficiently developed to be inoculated.
# The test compounds (see Table 1) were added 2 days before inoculation by way of spreading a 2 ml DMSO-solution with the compound over the agar and allowing the compound to diffuse in the agar during two days at constant temperature of 20° C. During incubation, the plates are protected from light in a dark incubator. The resulting concentration of each compound in each agar plate was 60 μM.
# After incubation, approximately 400 axenic juveniles of Meloidogyne incognita species were added to the plate.
# The plates were incubated in the dark at a constant temperature of 20° C. and 5 weeks after inoculation the number of galls formed on the roots were determined by counting. Also any toxic effect of the test compounds on the roots was recorded. 8 weeks after inoculation the plates were stored at low temperature.
# Each compound was tested in four replicates. Positive controls were treated with different concentrations of Aldicarb, a known nematicide. Negative controls included 5 replicates of double negative controls (no compound, no nematode), 5 replicates of single negative controls (no compound, with nematode) and 5 replicates of DMSO controls (DMSO solution, with nematode).
# [1] = test system: Meloidogyne incognita nematodes; experiment: Pot Assay 1: Meloidogyne infection of potato, egg masses/galls on roots; conditions: for number of egg masses (galls) on roots, Replicate 1 / number of egg masses (galls) on roots, Replicate 2 / number of egg masses (galls) on roots, Replicate 3: potato in pot, week 8 after inoculation
# Procedure: 500 ml clay pots were filled with 400 ml of silver sand. One tuber of potato ( Solanum tuberosum cv. Bintje) was planted in the sand. After 2 to 3 weeks incubation, the potato plant was sufficiently developed to be inoculated.
# Plants were grown under the usual standard greenhouse conditions at 14° C.-18° C., with 16 hours light and 8 hours dark and 80-90% relative humidity. The pots were watered using individual drippers and fertilizers were added under the form of macro- and micro nutrients according to plant growth requirements. When needed, the plants were sprayed with fungicides and insecticides.
# The compounds as described herein were added one day before inoculation. The compounds were dissolved in a 20 ml DMSO-solution and spread over the sand surface. The final concentration is calculated under the assumption that the compound is diffused entirely in the pot. This process occurred during two days at the normal greenhouse conditions described above.
# After compound incubation, approximately 1500 juveniles of Meloidogyne incognita nematodes were added to the pots.
# The pots were incubated at the described greenhouse conditions until nematode development was completed. At week 8 after inoculation the number of galls formed on the roots was counted after washing off the sandy substrate. Also the effect of the compound on the plant development was recorded.
# Every compound was tested in three replicates. Positive control plants were treated with different concentrations of aldicarb, a known nematicide. Negative controls involved 12 replicates of double negative controls (no compound, no nematode), 12 replicates of single negative controls (no compound, no DMSO, with nematode), 24 replicates of DMSO controls (DMSO solution, with nematode).
# As assessment of the root development was taken into account.
# Meloidogyne nematodes = experiment: Pot Assay 2: Meloidogyne infection of tomato, % infestation of roots; conditions: for % INF. (% Infestation): tomato in infested soil
# Procedure: The soil used in this assay originated from a plot, heavily infested with Meloidogyne nematodes. Part of this soil was sterilized by autoclaving and was used as negative control. Sandy soil, which was not infested with nematodes, was pursued from a commercial source.
# Plastic seedling trays with wells of 60 ml capacity were filled with about 40 ml of soil per well. 5 ml of water per well was used for irrigation.
# Compounds as described herein were tested in 4 different rates and with 12 replicates for each concentration. The compounds as described herein were stored as dry films of 4 different concentrations. The day of the application of the compounds, all the dry films were dissolved in 60 ml water and poured into the 12 replicate wells: 5 ml per well. Every tray of 12 wells was identified with a label, indicating compound and concentration used. The 4 final rates in the soil of the tested compound were approximately 0.05 mg, 0.20 mg, 1 mg and 5 mg. These amounts translate to field application rates respectively as 30, 120, 600 and 3000 g per hectare.
# 3-5 days after application of the tested compound, tomato seeds (cv. Rio Grande) were sown in the wells by hand, at about 2 cm deep. A light cover of vermiculite on the surface was used to avoid dehydration. Plants were irrigated by micro-nebulization 3-4 times per week at a rate of 3 L/m^2, weeded by hand and treated with fertilizers, fungicide and insecticides when needed.
# Their resistance against nematode infection was monitored and the efficacy of compounds described herein as a nematicide was measured. Furthermore the phytotoxicity of the test compounds was evaluated.
# Efficacy of the compounds described herein as nematicide was measured by giving the roots a percentage of infestation measured as follows. Plants were grown to reach good development of the roots, which corresponds to plants grown to about 10 cm high at about one month after emergence. After removal of the soil from the roots by rinsing with water, the roots were visually inspected and root galls were counted on 4 plants of the set of 12 replicate plants.
# Positive control plants were treated with a 10 micromolar concentration of oxamyl (Vydate, 10% SL; the rate of 10 micromolar corresponds to a commercial rate of 20 l/ha), a known nematicide. Negative controls involved double negative controls (no compound, sterile soil), and single negative controls (no compound, with nematode infested soil).
# tomato (cv. Rio Grande) = experiment: Pot Assay 2: root development (vigor of roots) of tomato; conditions: for ROOT DEV.: visual value 0 to 10 (10 equal to control)
# Procedure: Phytotoxicity of compounds as described herein when used as a nematicide, was measured as follows. […] At that moment, plant emergence was assessed for the plants treated with any of the compounds as described herein, by counting the number of plants per compound-concentration.
# Vigor of roots was also assessed once the plants are well established so as not to loose plants. To assess vigor of the plants or roots, a visual value ranging from 0 to 10 (0 no vigor, 10 equal to control) was scored per compound-concentration.
# [2] = highest concentration of the reference compound
# [3] = reference, 10 micromolar (Vydate, 10% SL)
compound,measurement,setting,value
CC(C)=CC1C(C(=O)OCN2C(=O)C3=C(CCCC3)C2=O)C1(C)C (mixture of isomers) [LIX],"Root knot count, average of the replicate counts",Meloidogyne incognita,19
CC(C)=CC1C(C(=O)OCc2coc(Cc3ccccc3)c2)C1(C)C (mixture of isomers) [LVII],"Root knot count, average of the replicate counts",Meloidogyne incognita,8.5
Cc1c(F)c(F)c(COC(=O)C2C(C=C(Cl)C(F)(F)F)C2(C)C)c(F)c1F (racemic) [LVIII],"number of egg masses (galls) on roots, Replicate 1",[1]; 50 μM,60
same,"number of egg masses (galls) on roots, Replicate 2",[1]; 50 μM,100
same,"number of egg masses (galls) on roots, Replicate 3",[1]; 50 μM,30
same,"Root knot count, average of the replicate counts",Meloidogyne incognita,18.25
CNC1=C(c2cccc(C(F)(F)F)c2)C(=O)C(c2ccccc2)O1 (racemic) [XV],"Root knot count, average of the replicate counts",Meloidogyne incognita,18
"CNC(=O)O/N=C/C(C)(C)SC [Aldicarb, reference compound]",egg mass development (number of egg masses),[1]; [2],41
same,"reduction of the egg mass development, fraction of control",[1]; [2],about ⅓
same,effect on the nematode development,[1]; three lowest concentrations of the reference compound,no effect
CCC(N)P(=O)(O)O (centres unmarked) [II],% INF. (% Infestation),Meloidogyne nematodes; RATE 0.05 mg,0.0%
same,% INF. (% Infestation),Meloidogyne nematodes; RATE 0.2 mg,0.0%
same,% INF. (% Infestation),Meloidogyne nematodes; RATE 1 mg,0.0%
same,% INF. (% Infestation),Meloidogyne nematodes; RATE 5 mg,0.0%
same,ROOT DEV.,tomato (cv. Rio Grande); RATE 0.05 mg,6.7
same,ROOT DEV.,tomato (cv. Rio Grande); RATE 0.2 mg,7.3
same,ROOT DEV.,tomato (cv. Rio Grande); RATE 1 mg,7.3
same,ROOT DEV.,tomato (cv. Rio Grande); RATE 5 mg,7.9
same,"Root knot count, average of the replicate counts",Meloidogyne incognita,6.5
N#Cc1c(Cl)c(Cl)c(Cl)c(C#N)c1Cl [IV],"Root knot count, average of the replicate counts",Meloidogyne incognita,11.5
CCNC(=O)NC(=O)C(C#N)=NOC [LII],"Root knot count, average of the replicate counts",Meloidogyne incognita,15.5
Cc1cccc(C)c1N(C(=O)CCl)C1CCOC1=O (centres unmarked) [LIV],% INF. (% Infestation),Meloidogyne nematodes; RATE 0.05 mg,5.0%
same,% INF. (% Infestation),Meloidogyne nematodes; RATE 0.2 mg,5.0%
same,% INF. (% Infestation),Meloidogyne nematodes; RATE 1 mg,3.8%
same,% INF. (% Infestation),Meloidogyne nematodes; RATE 5 mg,2.5%
same,ROOT DEV.,tomato (cv. Rio Grande); RATE 0.05 mg,7.5
same,ROOT DEV.,tomato (cv. Rio Grande); RATE 0.2 mg,7.2
same,ROOT DEV.,tomato (cv. Rio Grande); RATE 1 mg,7.6
same,ROOT DEV.,tomato (cv. Rio Grande); RATE 5 mg,6.6
same,"Root knot count, average of the replicate counts",Meloidogyne incognita,14.5
O=C(NC(=O)c1c(F)cccc1F)Nc1cc(Cl)c(Oc2ncc(C(F)(F)F)cc2Cl)c(Cl)c1 [LI],"Root knot count, average of the replicate counts",Meloidogyne incognita,17.5
COCC(=O)N(c1c(C)cccc1C)N1CCOC1=O [LV],"Root knot count, average of the replicate counts",Meloidogyne incognita,17.75
"CNC(=O)O/N=C(\SC)C(=O)N(C)C [Oxamyl, reference compound]",% INF. (% Infestation),Meloidogyne nematodes; RATE 1 mg,13.8%
same,percentage of infestation,Meloidogyne nematodes; [3],13.8%
same,ROOT DEV.,tomato (cv. Rio Grande); RATE 1 mg,7.5
same,root development,tomato (cv. Rio Grande); [3],7.5
CC(C)N(C(=O)COc1nnc(C(F)(F)F)s1)c1ccc(F)cc1 [XIII],"number of egg masses (galls) on roots, Replicate 3",[1]; 10 μM,40
same,"number of egg masses (galls) on roots, Replicate 1",[1]; 50 μM,60
same,"number of egg masses (galls) on roots, Replicate 3",[1]; 50 μM,30
same,"Root knot count, average of the replicate counts",Meloidogyne incognita,9.5
CC(C)(C)N(NC(=O)c1ccc(Cl)cc1)C(=O)c1ccccc1 [XIX],"number of egg masses (galls) on roots, Replicate 3",[1]; 10 μM,80
same,"number of egg masses (galls) on roots, Replicate 1",[1]; 50 μM,60
same,"number of egg masses (galls) on roots, Replicate 2",[1]; 50 μM,45
same,"number of egg masses (galls) on roots, Replicate 3",[1]; 50 μM,20
same,"Root knot count, average of the replicate counts",Meloidogyne incognita,10.75
Clc1nc(Cl)nc(Nc2ccccc2Cl)n1 [XLII],% INF. (% Infestation),Meloidogyne nematodes; RATE 0.05 mg,3.8%
same,% INF. (% Infestation),Meloidogyne nematodes; RATE 0.2 mg,0.0%
same,% INF. (% Infestation),Meloidogyne nematodes; RATE 1 mg,0.0%
same,% INF. (% Infestation),Meloidogyne nematodes; RATE 5 mg,0.0%
same,ROOT DEV.,tomato (cv. Rio Grande); RATE 0.05 mg,6.8
same,ROOT DEV.,tomato (cv. Rio Grande); RATE 0.2 mg,6.9
same,ROOT DEV.,tomato (cv. Rio Grande); RATE 1 mg,8.2
same,ROOT DEV.,tomato (cv. Rio Grande); RATE 5 mg,8.1
same,"Root knot count, average of the replicate counts",Meloidogyne incognita,17.25
CC(C)(C)C(O)C(Oc1ccc(-c2ccccc2)cc1)n1cncn1 (centres unmarked) [XLVIII],% INF. (% Infestation),Meloidogyne nematodes; RATE 0.05 mg,0.0%
same,% INF. (% Infestation),Meloidogyne nematodes; RATE 0.2 mg,1.3%
same,% INF. (% Infestation),Meloidogyne nematodes; RATE 1 mg,3.8%
same,% INF. (% Infestation),Meloidogyne nematodes; RATE 5 mg,1.3%
same,ROOT DEV.,tomato (cv. Rio Grande); RATE 0.05 mg,7.5
same,ROOT DEV.,tomato (cv. Rio Grande); RATE 0.2 mg,7.4
same,ROOT DEV.,tomato (cv. Rio Grande); RATE 1 mg,7.2
same,ROOT DEV.,tomato (cv. Rio Grande); RATE 5 mg,7.8
same,"Root knot count, average of the replicate counts",Meloidogyne incognita,12.75
Cc1cc(C)nc(Nc2ccccc2)n1 [XLVI],"Root knot count, average of the replicate counts",Meloidogyne incognita,18.25
Nc1nc(N)nc(NC2CC2)n1 [XLV],"Root knot count, average of the replicate counts",Meloidogyne incognita,19.5
O=[N+]([O-])N=C1NCCN1Cc1ccc(Cl)nc1 [XXII],"Root knot count, average of the replicate counts",Meloidogyne incognita,12
C#CCOC(=O)/C=C(C)/C=C/CC(C)CCCC(C)C (centres unmarked) [XXVIII],% INF. (% Infestation),Meloidogyne nematodes; RATE 0.05 mg,2.5%
same,% INF. (% Infestation),Meloidogyne nematodes; RATE 0.2 mg,1.3%
same,ROOT DEV.,tomato (cv. Rio Grande); RATE 0.05 mg,7.4
same,ROOT DEV.,tomato (cv. Rio Grande); RATE 0.2 mg,7.8
same,"Root knot count, average of the replicate counts",Meloidogyne incognita,8.5
CS(=O)(=O)c1cc(C(F)(F)F)ccc1C(=O)c1cnoc1C1CC1 [XXVI],% INF. (% Infestation),Meloidogyne nematodes; RATE 0.05 mg,1.3%
same,% INF. (% Infestation),Meloidogyne nematodes; RATE 0.2 mg,3.8%
same,% INF. (% Infestation),Meloidogyne nematodes; RATE 1 mg,0.0%
same,ROOT DEV.,tomato (cv. Rio Grande); RATE 0.05 mg,7.4
same,ROOT DEV.,tomato (cv. Rio Grande); RATE 0.2 mg,6.6
same,ROOT DEV.,tomato (cv. Rio Grande); RATE 1 mg,7.8
same,"Root knot count, average of the replicate counts",Meloidogyne incognita,8.75
CCOc1ccc([Si](C)(C)CCCc2ccc(F)c(Oc3ccccc3)c2)cc1 [XXXIII],"Root knot count, average of the replicate counts",Meloidogyne incognita,17.5
CCc1nn(C)c(C(=O)NCc2ccc(C(C)(C)C)cc2)c1Cl [XXXVIII],"number of egg masses (galls) on roots, Replicate 1",[1]; 50 μM,40
same,"number of egg masses (galls) on roots, Replicate 2",[1]; 50 μM,70
same,"number of egg masses (galls) on roots, Replicate 3",[1]; 50 μM,1
same,"Root knot count, average of the replicate counts",Meloidogyne incognita,16.5
